The values that follow come from US20260048036A1, “CRYSTALLINE FORMS OF A GLUCOSYLCERAMIDE SYNTHASE INHIBITOR AND USES THEREOF” (ACELINK THERAPEUTICS, INC., priority 2022, published 2026).

Molecules are shown by their SMILES. ≈ marks a conversion by molar mass, not a printed value. Some results are limits rather than exact numbers.

Data set [1] can be described thus: Competitive equilibration experiment (Form A + D + E slurry). Particulars: ethanol, acetone, acetonitrile at 5° C., 25° C. and 50° C., 3 days, XRPD. It counts as physicochemical. On the procedure: Competitive slurry was conducted to determine thermodynamic relationships of Crystalline Form A, Crystalline Form D and Crystalline Form E of Compound 1. […] The mixtures were stirred at 5° C., 25° C. or 50° C. for 3 days. Obtained solid part (wet cake) was investigated by XRPD.

A short description of data set [2]: Water activity study (Form A + Form C slurry). The data set is classed as physicochemical. Particulars: ethanol/water mixtures, a.w. 0.2-1.0, 25° C. or 50° C., XRPD of wet cake. On the procedure: Water activity experiments were conducted at 25° C. or 50° C. to determine critical water activity between anhydrate and hydrate. […] The mixtures were stirred at 25° C. or 50° C. for at least 2 days. The obtained solid part (wet cake) was investigated by XRPD.
The results of water activity study in different solvents at 25° C. and 50° C. are shown in Table 10 and Table 11, respectively. The water activity of a binary solvent system was calculated based on UNIFAC method (UNIQUAC Functional-group Activity Coefficients).

A short description of data set [3]: Solid state stability, 1 week (HPLC purity, color, XRPD). To be noted: for Bulk (XRPD) / Purity, Bulk (HPLC): Solid state, 1 week; for Purity, Bulk (HPLC): initial purity 99.8%.
Data set [4] in a line: Approximate solubility at 25° C. by visual observation. The data set is classed as physicochemical. Particulars: thermodynamic from solid. How it is done:
Free form Crystalline Form A of Compound 1 was used as the starting material for salt screening and selection study. […] Max. volume of each solvent added was 1 mL.

A short description of data set [5]: physchem. Particulars: thermodynamic from solid.
Data set [6] concerns the target T1, Glucosylceramide synthase (GCS) (Homo sapiens, UniProt Q16739).
T1 construct: The MDCK, K-562, and L6 cell lines all endogenously express GCS enzyme; host or cells: K-562 human leukemia cells, live
T1 sequence (Q16739 1-394): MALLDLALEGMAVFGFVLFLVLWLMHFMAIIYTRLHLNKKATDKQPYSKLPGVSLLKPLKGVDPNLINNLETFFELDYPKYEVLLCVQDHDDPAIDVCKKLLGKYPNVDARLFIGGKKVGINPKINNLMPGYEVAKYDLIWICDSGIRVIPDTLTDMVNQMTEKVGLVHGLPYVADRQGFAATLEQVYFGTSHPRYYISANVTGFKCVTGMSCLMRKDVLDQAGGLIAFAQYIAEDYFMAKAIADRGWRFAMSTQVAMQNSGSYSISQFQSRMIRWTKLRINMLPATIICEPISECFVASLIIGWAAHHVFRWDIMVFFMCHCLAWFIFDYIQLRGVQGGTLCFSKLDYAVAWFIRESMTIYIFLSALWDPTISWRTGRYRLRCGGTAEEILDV
Briefly: GCS cell-based assay with live K-562 cells. To be noted: C6-NBD-glucosylceramide by LC-MS/MS. An excerpt:
The reaction product, C6-NBD-glucosylceramide, could then be detected and quantified by LC-MS/MS. The inventors used this method to test and validate the effect of various GCS inhibitors on GCS enzyme activity from different species.
The GCS enzyme activity was detected by using the fluorescent substrate, C6-NBD-ceramide, and monitoring the formation of the fluorescent reaction product, C6-NBD-glucosylceramide. First, the inventors used cell lysate derived from a canine kidney cell line (MDCK, ATCC Cat #CCL-34™) as the source of GCS and tested the inhibitory activity of several control and test compounds.
The quantitative analysis of C6-NBD-glucosylceramide was performed on a Shimadzu ultra-fast liquid chromatography coupled with API 4000 mass spectrometer. Analyst 1.5 software packages were used to control the LC-MS/MS system, as well as for data acquisition and processing.
The C6-NBD-glucosylceramide reading was normalized first by dividing the peak area of C6-NBD-glucosylceramide with the peak area of the internal standard, and then the amount was calculated according to the standard curve generated in the same assay run. For the cell based assay results, the amount of C6-NBD-glucosylceramide was also normalized by the protein concentration of the cell samples. […]

[7] abbreviates: 50 mM acetate buffer, pH 4.5, 37 °C, pH 4.5, aqueous buffer.
[8] abbreviates: 50 mM phosphate buffer, pH 6.8, 37 °C, pH 6.8, aqueous buffer.

The term solubility denotes how much of the substance goes into solution per volume. The IC50 is the concentration that inhibits the measured activity by half. A higher IC50 goes with weaker potency. For `O=C(N[C@H](CN1CCCC1)[C@H](O)c1ccc(OC2CC2)c(Cl)c1)/C(=N/O)c1ccc2cc(Cl)ccc2c1` [Crystalline Form A of Compound 1], in data set [1], the “thermodynamic stability in competitive slurry” value is recorded as “the most stable form”. For the same compound, the “form stability in water activity study” value in data set [2] is “stable in a wide range of water activity”. Further, in data set [3] (25° C./92% RH open container, 40° C./75% RH open container, 60° C. tight container, one week), the “chemical and physical stability” value was “chemically and physically stable”. Further, the “Bulk (XRPD)” value in data set [3] (25° C./92% RH, open container) was “No form change”; in data set [3] (40° C./75% RH, open container) it was “No form change”; in data set [3] (60° C., tight container), “No form change”. Also, the “Purity, Bulk (HPLC)” value in data set [3] (25° C./92% RH, open container) amounted to 99.8%; in data set [3] (40° C./75% RH, open container) it was 99.8%; in data set [3] (60° C., tight container), 99.8%. The solubility in data set [4] (organic solvent or mixture, Acetone) is 16700 to 25000 µg/mL (≈ 30800 to 46100 µM); in data set [4] (organic solvent or mixture, Acetonitrile), < 5000 µg/mL; in data set [4] (organic solvent or mixture, Ethanol), 5000 to 5500 µg/mL (≈ 9220 to 10100 µM); in data set [4] (organic solvent or mixture, Ethyl acetate) it was < 5000 µg/mL; in data set [4] (Water), < 5000 µg/mL. The solubility at 2 h is 230 µg/mL (≈ 424 µM) in data set [5] (setting [7]); 10 µg/mL (≈ 18.4 µM) in data set [5] (setting [8]); 30 µg/mL (≈ 55.3 µM) in data set [5] (FaSSIF-V1, 37 °C, pH 6.5, fassif); 1970 µg/mL (≈ 3630 µM) in data set [5] (FeSSIF-V1, 37 °C, pH 5, fessif); 1160 µg/mL (≈ 2140 µM) in data set [5] (SGF, 37 °C, pH 2, simulated gastric fluid). Also, the solubility at 24 h in data set [5] (setting [7]) is 210 µg/mL (≈ 387 µM); in data set [5] (setting [8]), 5 µg/mL (≈ 9.22 µM); in data set [5] (0.1N HCl, pH 1.2, 37 °C, pH 1.2, simulated gastric fluid), 970 µg/mL (≈ 1790 µM); in data set [5] (FeSSIF-V1, 37 °C, pH 5, fessif), > 2000 µg/mL. In data set [6], this compound had an IC50 of 6.15 nM.
